Source: patent publication US11571460B2 (priority 2017, dated 2023)

Tests used:
[1] = system: bone marrow-derived macrophages; experiment: Phagocytosis assay with latex bead-FITC; assay type: cell-based, mouse; conditions: vs control group
Protocol: Cells were smeared in a 96-assay well plate and treated as described above. The cells were pretreated for 30 minutes with or without cytochalasin D before treatment with latex bead-FITC (Sigma-Aldrich). After 2 hours of incubation, the cells were washed with PBS three times to remove foreign particles. Fluorescence of internalized beads was measured using emission of 527 nm after excitation of 485 nm in a fluorescent plate reader (Fluorskan Ascent FL) quenching with trypan blue.

[2] = system: splenocytes; experiment: Melittin binding study with rhodamine-bound melittin in splenocytes; assay type: cell-based, mice; conditions: 10 nM cytochalasin D pretreatment vs DMSO control
Protocol: After 1 hour, cells were harvested and the non-binding peptides were washed twice.
Next, the cells were cultured with rhodamine-bound peptides and stained with CD11b-APC antibodies as described above.
Annexin-V was added to a sample before data collection to distinguish dead cells. […] tumor-associated macrophage was stained with CD86-PEcy7 (e-bioscience) or CD206-PercpCy5.5 (Biolegend). The cells were detected in FACS Calibur or FACS CantoII.

For `C=C1[C@@H](C)[C@H]2[C@H](Cc3ccccc3)NC(=O)[C@]23[C@H](OC(C)=O)/C=C/[C@@](C)(O)C(=O)[C@@H](C)C/C=C/[C@H]3[C@@H]1O` [cytochalasin D, reference compound], the “phagocytic capacity / phagocytosis index” value [1] was “significantly lowered” and the “melittin+CD11b+ double positive cells in total CD11b+ cell population” value [2] was “no difference”.
